Drawing on US20240376099A1, “COMPOUNDS AND COMPOSITIONS AS INHIBITORS OF ENDOSOMAL TOLL-LIKE RECEPTORS” (Novartis AG, priority 2016, published 2024), this text covers IC50 for 13 compounds.

Each structure is given as a SMILES string. Where only a bound is given, the exact number is not on record here.

For this assay, the target named is T1, TLR9 (Homo sapiens, UniProt Q9NR96).
T1 construct: Fresh blood was collected from normal human donors; endogenous in cells; host or cells: human PBMCs from fresh donor blood
T1 sequence (Q9NR96 26-1032): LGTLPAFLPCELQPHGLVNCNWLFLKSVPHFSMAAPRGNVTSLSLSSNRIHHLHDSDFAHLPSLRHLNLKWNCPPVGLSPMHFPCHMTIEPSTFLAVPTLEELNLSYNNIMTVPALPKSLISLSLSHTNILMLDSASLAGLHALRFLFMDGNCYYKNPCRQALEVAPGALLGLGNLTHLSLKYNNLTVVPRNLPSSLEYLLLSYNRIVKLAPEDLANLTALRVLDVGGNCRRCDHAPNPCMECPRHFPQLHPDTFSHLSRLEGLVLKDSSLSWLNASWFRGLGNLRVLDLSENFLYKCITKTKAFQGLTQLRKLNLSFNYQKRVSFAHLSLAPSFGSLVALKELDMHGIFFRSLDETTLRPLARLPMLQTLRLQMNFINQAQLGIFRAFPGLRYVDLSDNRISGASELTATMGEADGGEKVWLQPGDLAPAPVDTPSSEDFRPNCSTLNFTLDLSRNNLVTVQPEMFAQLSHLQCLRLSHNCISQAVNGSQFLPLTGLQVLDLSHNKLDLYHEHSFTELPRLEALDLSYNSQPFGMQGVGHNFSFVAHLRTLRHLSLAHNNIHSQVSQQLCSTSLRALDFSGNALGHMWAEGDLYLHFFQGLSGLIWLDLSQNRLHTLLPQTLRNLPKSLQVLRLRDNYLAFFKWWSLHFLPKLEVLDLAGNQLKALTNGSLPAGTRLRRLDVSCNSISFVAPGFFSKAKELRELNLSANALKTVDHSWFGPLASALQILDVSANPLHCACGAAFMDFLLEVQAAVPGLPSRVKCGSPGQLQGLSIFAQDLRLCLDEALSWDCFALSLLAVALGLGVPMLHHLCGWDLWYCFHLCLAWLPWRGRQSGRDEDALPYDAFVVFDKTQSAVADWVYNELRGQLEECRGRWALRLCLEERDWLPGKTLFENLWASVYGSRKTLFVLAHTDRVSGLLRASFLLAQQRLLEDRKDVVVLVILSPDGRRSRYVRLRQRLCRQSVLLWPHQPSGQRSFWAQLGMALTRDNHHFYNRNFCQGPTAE
Briefly: huPBMC TLR9 Antagonist IFNα Assay. The class given is cell-based. The note with it: human PBMCs stimulated with ODN2216 0.3 μM, 14-16 hrs; IFNα2b AlphaLISA read-out. The method, boiled down:
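Human PBMCs from fresh donor blood (150,000 cells/well) stimulated 14–16 h at 37 °C with DOTAP-complexed ssRNA40 (final 1 μg/ml for TLR8, 10 μg/mL for TLR7) or ODN2216 (final 0.3 μM, TLR9), 0.25% DMSO, ten-point 1/3 compound dilutions. Supernatant IL-6 read by HTRF (TLR8); IFNα by IFNα2b AlphaLISA (TLR7/TLR9).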

For orientation: IC50 means the concentration that inhibits the measured activity by half. Regarding `CCNC12CCC(Cn3nc(C)c4c3CCN(c3ccnc(-c5ccccc5)c3)C4)(CC1)CC2` [compound 127, N-ethyl-4-((3-methyl-5-(2-phenylpyridin-4-yl)-4,5,6,7-tetrahydro-1H-pyrazolo[4,3-c]pyridin-1-yl)methyl)bicyclo[2.2.2]octan-1-amine], the half-inhibitory concentration (IC50) amounted to 545 nM.
To `Cc1cc(N2CCc3c(c(C)nn3CC34CCC(N5CCOC[C@@H]5C)(CC3)CC4)C2)c2cnn(C)c2n1` [compound 128, (S)-4-(4-((5-(1,6-dimethyl-1H-pyrazolo[3,4-b]pyridin-4-yl)-3-methyl-4,5,6,7-tetrahydro-1H-pyrazolo[4,3-c]pyridin-1-yl)methyl)bicyclo[2.2.2]octan-1-yl)-3-methylmorpholine] belongs 792 nM; to `Cc1cc(N2CCc3c(c(C)nn3CC34CCC(N5CCOC[C@H]5C)(CC3)CC4)C2)c2cnn(C)c2n1` [compound 129, (R)-4-(4-((5-(1,6-dimethyl-1H-pyrazolo[3,4-b]pyridin-4-yl)-3-methyl-4,5,6,7-tetrahydro-1H-pyrazolo[4,3-c]pyridin-1-yl)methyl)bicyclo[2.2.2]octan-1-yl)-3-methylmorpholine], 1050 nM.
To `COCCNC12CCC(Cn3nc(C)c4c3CCN(c3ccnc(-c5ccccc5)c3)C4)(CC1)CC2` [compound 130, N-(2-methoxyethyl)-4-((3-methyl-5-(2-phenylpyridin-4-yl)-4,5,6,7-tetrahydro-1H-pyrazolo[4,3-c]pyridin-1-yl)methyl)bicyclo[2.2.2]octan-1-amine] belongs 672 nM; to `Cc1cc(N2CCc3c(c(C)nn3CC34CCC(NC(=O)C5CNC5)(CC3)CC4)C2)c2cnn(C)c2n1` [compound 131, N-(4-((5-(1,6-dimethyl-1H-pyrazolo[3,4-b]pyridin-4-yl)-3-methyl-4,5,6,7-tetrahydro-1H-pyrazolo[4,3-c]pyridin-1-yl)methyl)bicyclo[2.2.2]octan-1-yl)azetidine-3-carboxamide], over 10000 nM; to `CCN(C)CC(=O)NC12CCC(Cn3nc(C)c4c3CCN(c3cc(C)nc5c3cnn5C)C4)(CC1)CC2` [compound 132, N-(4-((5-(1,6-dimethyl-1H-pyrazolo[3,4-b]pyridin-4-yl)-3-methyl-4,5,6,7-tetrahydro-1H-pyrazolo[4,3-c]pyridin-1-yl)methyl)bicyclo[2.2.2]octan-1-yl)-2-(ethyl(methyl)amino)acetamide], 260 nM.
As for `[2H]C([2H])([2H])N(CC(=O)NC12CCC(Cn3nc(C)c4c3CCN(c3cc(C)nc5c3cnn5C)C4)(CC1)CC2)C([2H])([2H])[2H]` [compound 134, 2-(bis(trideuteromethyl)amino)-N-(4-((5-(1,6-dimethyl-1H-pyrazolo[3,4-b]pyridin-4-yl)-3-methyl-4,5,6,7-tetrahydro-1H-pyrazolo[4,3-c]pyridin-1-yl)methyl)bicyclo[2.2.2]octan-1-yl)acetamide], the figure is 299 nM; as for `Cc1cc(N2CCc3c(c(C)nn3CC34CCC(NCC5(CO)COC5)(CC3)CC4)C2)c2cnn(C)c2n1` [compound 137, (3-(((4-((5-(1,6-dimethyl-1H-pyrazolo[3,4-b]pyridin-4-yl)-3-methyl-4,5,6,7-tetrahydro-1H-pyrazolo[4,3-c]pyridin-1-yl)methyl)bicyclo[2.2.2]octan-1-yl)amino)methyl)oxetan-3-yl)methanol], 1280 nM; as for `CCn1ncc2c(N3CCc4c(c(C)nn4CC45CCC(NC(=O)[C@@H]6COCCN6)(CC4)CC5)C3)cc(C)nc21` [compound 141, (S)-N-(4-((5-(1-ethyl-6-methyl-1H-pyrazolo[3,4-b]pyridin-4-yl)-3-methyl-4,5,6,7-tetrahydro-1H-pyrazolo[4,3-c]pyridin-1-yl)methyl)bicyclo[2.2.2]octan-1-yl)morpholine-3-carboxamide], 5170 nM.
With `CNCCC(=O)NC12CCC(Cn3nc(C)c4c3CCN(c3cc(C)nc5c3cnn5C)C4)(CC1)CC2` [compound 142, N-(4-((5-(1,6-dimethyl-1H-pyrazolo[3,4-b]pyridin-4-yl)-3-methyl-4,5,6,7-tetrahydro-1H-pyrazolo[4,3-c]pyridin-1-yl)methyl)bicyclo[2.2.2]octan-1-yl)-3-(methylamino)propanamide], the IC50 is over 6590 nM.
For the compound `Cc1cc(N2CCc3c(c(C)nn3CC34CCC(NC5CCC5)(CC3)CO4)C2)c2cnn(C)c2n1` [compound 143, N-cyclobutyl-1-((5-(1,6-dimethyl-1H-pyrazolo[3,4-b]pyridin-4-yl)-3-methyl-4,5,6,7-tetrahydro-1H-pyrazolo[4,3-c]pyridin-1-yl)methyl)-2-oxabicyclo[2.2.2]octan-4-amine], the IC50 was 841 nM.
As for `Cc1nn(CC23CCC(NC4CCC4)(CC2)CC3)c2c1CN(c1ccnc(-c3ccccc3)c1)CC2` [compound 144, N-cyclobutyl-4-((3-methyl-5-(2-phenylpyridin-4-yl)-4,5,6,7-tetrahydro-1H-pyrazolo[4,3-c]pyridin-1-yl)methyl)bicyclo[2.2.2]octan-1-amine], the figure is 139 nM; as for `Cc1cc(N2CCc3c(c(C)nn3CC34CCC(NC(=O)OC(C)(C)C)(CC3)C4)C2)c2cnn(C)c2n1` [compound 148, tert-butyl (4-((5-(1,6-dimethyl-1H-pyrazolo[3,4-b]pyridin-4-yl)-3-methyl-4,5,6,7-tetrahydro-1H-pyrazolo[4,3-c]pyridin-1-yl)methyl)bicyclo[2.2.1]heptan-1-yl)carbamate], over 10000 nM.
